According to ChEMBL document CHEMBL3734669, “Δ(5)-Cholenoyl-amino acids as selective and orally available antagonists of the Eph-ephrin system” (Eur J Med Chem, 2015):
In brackets after ≈: the same amount, converted by molar mass. Activity calls are given as the source filed them. The calls are words filed in the database; no cut-off is given here.

What was measured:
Ephrin type-A receptor 2 [1] = target: T1, Ephrin type-A receptor 2 (Homo sapiens, UniProt P29317); assay: Displacement of biotinylated-ephrin-A1-Fc from EphA2-Fc receptor (unknown origin) preincubated for 1 hr followed by biotinylated-ephrin-A1-Fc addition measured after 4 hrs by ELISA
[2] = Kinetic solubility of the compound in NaCl solution at 25 deg C after 2 hrs by HPLC-ESI-MS/MS analysis; format: physicochemical; settings: read-out: Kinetic_solubility
[3] = AUC (0 to t) in mouse at 30 mg/kg, po administered as single dose by HPLC-MS analysis; format: ADME, organism-based; settings: in vivo
[4] = n-octanol-water distribution coefficient, log D of the compound at pH 7.4 after 4 hrs by shake-flask method; format: physicochemical
[5] = target: T2, G-protein coupled bile acid receptor 1 (Homo sapiens, UniProt Q8TDU6); assay: Agonist activity at TGR5 (unknown origin) assessed as cAMP level; format: functional
T2 sequence (Q8TDU6 whole entry): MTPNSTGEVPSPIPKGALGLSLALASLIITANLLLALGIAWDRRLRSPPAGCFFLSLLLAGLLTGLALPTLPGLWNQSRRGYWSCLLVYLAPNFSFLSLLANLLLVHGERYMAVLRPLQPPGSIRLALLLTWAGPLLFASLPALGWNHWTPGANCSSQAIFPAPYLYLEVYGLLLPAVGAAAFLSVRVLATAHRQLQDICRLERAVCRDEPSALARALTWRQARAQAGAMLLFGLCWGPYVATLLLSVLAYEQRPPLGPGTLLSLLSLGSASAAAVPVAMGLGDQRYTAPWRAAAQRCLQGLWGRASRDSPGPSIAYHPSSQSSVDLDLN

[6] = Metabolic stability in mouse plasma assessed as compound remaining at 1 uM after 24 hrs by HPLC-ESI-MS/MS analysis; format: ADME, cell-free; settings: read-out: Stability
[7] = target: T3, Nuclear receptor subfamily 1 group I member 2 (Homo sapiens, UniProt O75469); assay: Activation of human recombinant PXR up to 10 uM by alphascreen method
T3 sequence (O75469 whole entry): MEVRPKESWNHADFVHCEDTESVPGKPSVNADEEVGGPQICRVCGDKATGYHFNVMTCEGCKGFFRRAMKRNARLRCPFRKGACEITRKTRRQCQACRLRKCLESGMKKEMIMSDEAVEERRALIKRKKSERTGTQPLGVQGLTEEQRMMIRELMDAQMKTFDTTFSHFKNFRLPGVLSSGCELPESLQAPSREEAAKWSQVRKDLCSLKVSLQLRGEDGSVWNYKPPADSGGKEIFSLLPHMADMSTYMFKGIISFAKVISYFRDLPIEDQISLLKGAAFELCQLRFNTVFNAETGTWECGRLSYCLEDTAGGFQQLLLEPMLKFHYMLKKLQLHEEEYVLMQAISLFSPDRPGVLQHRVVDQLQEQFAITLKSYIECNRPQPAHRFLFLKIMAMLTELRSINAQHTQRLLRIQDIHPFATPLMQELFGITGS

[8] = Cmax in mouse at 30 mg/kg, po administered as single dose by HPLC-MS analysis; format: ADME, organism-based; parameters: dose 30 mg/kg, route oral; settings: in vivo
[9] = Metabolic stability in mouse liver S9 fractions assessed as compound remaining at 1 uM after 1 hr by HPLC-ESI-MS/MS analysis in presence of NADPH regenerating system; format: ADME, subcellular, Liver S9 fraction; settings: read-out: Stability
Ephrin type-A receptor 2 [10] = target: T1, Ephrin type-A receptor 2; assay: Displacement of biotinylated-ephrin-A1 from EphA2 receptor (unknown origin) up to 100 uM preincubated for 1 hr followed by biotinylated-ephrin-A1-Fc addition measured after 4 hrs by ELISA
[11] = Cytotoxicity against human PC3 cells at 10 to 30 uM after 2 hrs by LDH release assay; format: cell-based; settings: pc-3, 2 h

T1 sequence (P29317 whole entry): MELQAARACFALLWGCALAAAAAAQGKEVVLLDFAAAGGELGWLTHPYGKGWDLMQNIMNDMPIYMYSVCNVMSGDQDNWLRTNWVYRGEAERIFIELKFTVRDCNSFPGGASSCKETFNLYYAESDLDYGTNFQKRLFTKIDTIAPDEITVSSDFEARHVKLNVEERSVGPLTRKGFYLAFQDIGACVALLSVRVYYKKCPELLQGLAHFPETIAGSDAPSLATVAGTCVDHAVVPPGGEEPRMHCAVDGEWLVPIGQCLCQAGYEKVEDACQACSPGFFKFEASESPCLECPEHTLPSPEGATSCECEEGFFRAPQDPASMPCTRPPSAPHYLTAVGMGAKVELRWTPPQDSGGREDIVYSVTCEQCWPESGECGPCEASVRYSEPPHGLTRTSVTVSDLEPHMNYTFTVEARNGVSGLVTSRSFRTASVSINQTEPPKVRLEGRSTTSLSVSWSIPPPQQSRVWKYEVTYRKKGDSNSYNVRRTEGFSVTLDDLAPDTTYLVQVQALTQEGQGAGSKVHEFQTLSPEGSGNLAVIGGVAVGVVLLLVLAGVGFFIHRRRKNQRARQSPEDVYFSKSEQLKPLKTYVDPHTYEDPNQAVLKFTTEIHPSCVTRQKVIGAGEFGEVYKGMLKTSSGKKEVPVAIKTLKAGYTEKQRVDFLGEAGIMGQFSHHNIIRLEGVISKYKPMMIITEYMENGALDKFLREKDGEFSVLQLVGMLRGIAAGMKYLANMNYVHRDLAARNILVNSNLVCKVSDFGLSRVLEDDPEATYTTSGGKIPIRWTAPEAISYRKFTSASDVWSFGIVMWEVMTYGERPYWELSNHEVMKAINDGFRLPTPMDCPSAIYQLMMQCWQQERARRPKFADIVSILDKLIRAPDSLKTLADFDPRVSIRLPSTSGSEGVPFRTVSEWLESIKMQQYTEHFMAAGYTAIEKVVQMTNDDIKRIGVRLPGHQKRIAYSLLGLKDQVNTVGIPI

C[C@H](CCC(=O)N[C@@H](CO)C(=O)O)[C@H]1CC[C@H]2[C@@H]3CC=C4C[C@@H](O)CC[C@]4(C)[C@H]3CC[C@]12C
IC50 (Ephrin type-A receptor 2 [1]): > 100 µM

C[C@H](CCC(=O)N[C@H](CC(=O)O)Cc1c[nH]c2ccccc12)[C@H]1CC[C@H]2[C@@H]3CC[C@@H]4C[C@H](O)CC[C@]4(C)[C@H]3CC[C@]12C
solubility kinetic at 2 h [2]: 31.8 µM (≈ 18.3 µg/mL)
AUC(0-t) [3]: 21.2 ng·h/mL
logD at 4 h [4]: 4.9
EC50 [5]: 4 µM
remaining at 24 h, 1 µM [6]: 98.3%
Activity [7]: 30%
Cmax [8]: 14 nM
remaining at 1 h, 1 µM [9]: 56%

COC(=O)[C@H](Cc1c[nH]c2ccccc12)NC(=O)CC[C@@H](C)[C@H]1CC[C@H]2[C@@H]3CC=C4C[C@@H](O)CC[C@]4(C)[C@H]3CC[C@]12C
inhibition (Ephrin type-A receptor 2 [10]): inactive

C[C@H](CCC(=O)N[C@@H](Cc1ccccc1)C(=O)O)[C@H]1CC[C@H]2[C@@H]3CC=C4C[C@@H](O)CC[C@]4(C)[C@H]3CC[C@]12C
IC50 (Ephrin type-A receptor 2 [1]): > 100 µM

CSCC[C@H](NC(=O)CC[C@@H](C)[C@H]1CC[C@H]2[C@@H]3CC=C4C[C@@H](O)CC[C@]4(C)[C@H]3CC[C@]12C)C(=O)O
inhibition (Ephrin type-A receptor 2 [10]): inactive

C[C@H](CCC(=O)N[C@@H](Cc1c[nH]c2ccc(O)cc12)C(=O)O)[C@H]1CC[C@H]2[C@@H]3CC=C4C[C@@H](O)CC[C@]4(C)[C@H]3CC[C@]12C
Activity [11]: Non-toxic

C[C@H](CCC(=O)O)[C@H]1CC[C@H]2[C@@H]3CC=C4C[C@@H](O)CC[C@]4(C)[C@H]3CC[C@]12C
IC50 (Ephrin type-A receptor 2 [1]): 39.8 µM

C[C@H](CCC(=O)NCC(=O)O)[C@H]1CC[C@H]2[C@@H]3CC=C4C[C@@H](O)CC[C@]4(C)[C@H]3CC[C@]12C
inhibition (Ephrin type-A receptor 2 [10]): inactive
